The values that follow come from PubChem BioAssay (NCI).

SMILES strings stand for the structures.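 Values below derive from 48-hour exposures of cells grown in 96-well plates, with endpoints linearly interpolated between the two concentrations bracketing the appropriate inhibition level. GI50 = concentration required for 50% inhibition of growth. The concentration for full growth arrest is given as TGI.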 Bounds are passed on as bounds.

Among the test systems are RXF 393 renal; MOLT-4 leukemia; ACHN renal; DU-145 prostate; M14 melanoma; MCF7 breast; RPMI-8226 leukemia; NCI-H23 lung; CAKI-1 renal; EKVX NSCLC.
Assay in all cases: growth of human tumour cells (NCI), 48 h

For the molecule `CCc1ccccc1NC(=O)c1sc2nc3c(cc2c1N)C(=O)CCC3`, the GI50 in the assay on RXF 393 renal is 0.191 µM; in the assay on MOLT-4 leukemia it was 5.29 µM; in the assay on ACHN renal, 1.17 µM; in the assay on DU-145 prostate, 0.589 µM; in the assay on M14 melanoma, 0.404 µM; in the assay with MCF7 breast it was 0.328 µM. The GI50 in the assay on RPMI-8226 leukemia is 0.782 µM; with NCI-H23 lung it was 0.711 µM; in the assay on CAKI-1 renal, 0.504 µM. Further, the TGI with RXF 393 renal is 0.852 µM; with MOLT-4 leukemia, over 100 µM; in the assay on ACHN renal it was over 100 µM; with DU-145 prostate it was over 100 µM; in the assay on M14 melanoma, over 100 µM; in the assay with MCF7 breast, over 100 µM. In addition, the TGI in the assay with RPMI-8226 leukemia is over 30.9 µM; in the assay with NCI-H23 lung it was over 100 µM; in the assay on CAKI-1 renal, over 100 µM.

Consider `C[C@]12CC[C@@H]3c4ccc(O)cc4CC[C@H]3[C@@H]1CC[C@@H]2NS(=O)(=O)c1cccc(F)c1`, for which the GI50 with RXF 393 renal is 2.42 µM; in the assay with MOLT-4 leukemia it was 2.5 µM; with ACHN renal, 2.71 µM; in the assay on DU-145 prostate, 5.45 µM; with M14 melanoma, 3.41 µM; with MCF7 breast it was 3.49 µM. The GI50 was 3.65 µM with RPMI-8226 leukemia, 3.19 µM in the assay on NCI-H23 lung and 3.4 µM in the assay with CAKI-1 renal. The TGI with RXF 393 renal was 7.4 µM; with MOLT-4 leukemia, 9.59 µM; in the assay on ACHN renal, 8.66 µM; with DU-145 prostate it was 17.9 µM; with M14 melanoma, 11.9 µM; with MCF7 breast, 11 µM. The TGI in the assay on RPMI-8226 leukemia is 19.6 µM; with NCI-H23 lung, 13.5 µM; in the assay on CAKI-1 renal, 13.5 µM.

As for `CN(CCCNC(=O)Cc1ccc2ccc3cccc4ccc1c2c34)CCCNc1cc(-c2ccc3ccccc3c2)nc2ccccc12`, the GI50 in the assay with MOLT-4 leukemia was 1.19 µM; in the assay on ACHN renal it was 1.42 µM; with DU-145 prostate, 1.55 µM; in the assay on M14 melanoma it was 1.76 µM; in the assay with MCF7 breast, 0.587 µM; in the assay with RPMI-8226 leukemia it was 1.22 µM. Moreover, the GI50 in the assay with NCI-H23 lung was 1.68 µM; in the assay on CAKI-1 renal it was 1.8 µM. The TGI in the assay with MOLT-4 leukemia turned out to be 2.57 µM; in the assay with ACHN renal, 2.87 µM; in the assay on DU-145 prostate, 2.89 µM; in the assay with M14 melanoma, 3.46 µM; in the assay on MCF7 breast, 2.08 µM; in the assay on RPMI-8226 leukemia it was 4.11 µM. The TGI came to 3.18 µM in the assay on NCI-H23 lung and 3.55 µM in the assay with CAKI-1 renal.

For the molecule `C[C@]12CC[C@H](O)C[C@H]1CC[C@@H]1[C@@H]2CC[C@]2(C)[C@@H](C3=CC(=O)OC3)CC[C@]12O`, the TGI with RXF 393 renal was 0.0681 µM; in the assay with MOLT-4 leukemia, 0.0537 µM; in the assay on ACHN renal it was 0.825 µM; in the assay with DU-145 prostate, 0.146 µM; with M14 melanoma, 1.6 µM; with RPMI-8226 leukemia, 0.558 µM. Further, the TGI amounted to 0.433 µM in the assay on EKVX NSCLC and 0.18 µM in the assay with CAKI-1 renal. In addition, in the assay on DU-145 prostate, the GI50 is 0.0325 µM.

In the case of `COc1ccc2ncn(-c3cc(O[C@H](C)c4ccccc4Cl)c(C(N)=O)s3)c2c1`, the GI50 in the assay with RXF 393 renal is 0.0105 µM; in the assay with MOLT-4 leukemia, 0.0122 µM; in the assay on ACHN renal it was 1.13 µM; in the assay on M14 melanoma, 0.0164 µM; with MCF7 breast, 0.00895 µM; in the assay on RPMI-8226 leukemia, 0.016 µM. In addition, the GI50 is 0.0197 µM with NCI-H23 lung, 0.183 µM in the assay with EKVX NSCLC and 0.189 µM with CAKI-1 renal. In addition, the TGI in the assay on RXF 393 renal is 3.78 µM; in the assay on MOLT-4 leukemia, over 10.5 µM; in the assay with ACHN renal, over 25 µM; in the assay on M14 melanoma, over 25 µM; with MCF7 breast it was 4.17 µM; in the assay on RPMI-8226 leukemia, 8.71 µM. The TGI with NCI-H23 lung was over 18.3 µM; with EKVX NSCLC it was over 25 µM; in the assay on CAKI-1 renal it was over 25 µM.

Turning to `NC(N)=NCCCCCNc1noc(Cc2c[nH]c3cc(Br)ccc23)n1`, the GI50 with RXF 393 renal was 20.2 µM; in the assay with MOLT-4 leukemia, 8.12 µM; in the assay with ACHN renal, 39.9 µM; with DU-145 prostate it was 20.4 µM; in the assay on M14 melanoma, 10.8 µM; in the assay with MCF7 breast it was 16.3 µM. The figures for the GI50 in the assay on RPMI-8226 leukemia, with NCI-H23 lung and with CAKI-1 renal were 6.78 µM, 8.2 µM and 66.7 µM, respectively. Moreover, the TGI was over 100 µM in the assay with RXF 393 renal; 36.3 µM in the assay with MOLT-4 leukemia; over 100 µM in the assay with ACHN renal; over 100 µM with DU-145 prostate; 44.3 µM in the assay with M14 melanoma; 45 µM with MCF7 breast. The TGI in the assay with RPMI-8226 leukemia is 47.1 µM; in the assay on NCI-H23 lung it was 28.7 µM; with CAKI-1 renal, over 100 µM.

Turning to `O=[N+]([O-])c1ccc2c(c1)C(c1ccccc1Cl)=Nc1cn[nH]c1N2`, the GI50 was 4.57 µM in the assay on RXF 393 renal; 10.5 µM with MOLT-4 leukemia; 14.4 µM in the assay with ACHN renal; 20.4 µM in the assay with DU-145 prostate; over 25 µM in the assay on M14 melanoma; 10.9 µM with MCF7 breast. For the same molecule, the values for the GI50 in the assay with RPMI-8226 leukemia, in the assay with NCI-H23 lung and in the assay with CAKI-1 renal were over 24.2 µM, over 25 µM and 12.7 µM, respectively. Also, the TGI in the assay on RXF 393 renal, in the assay with MOLT-4 leukemia, in the assay on ACHN renal, in the assay on DU-145 prostate, with M14 melanoma and in the assay on MCF7 breast was over 25 µM throughout. Moreover, the TGI with RPMI-8226 leukemia, with NCI-H23 lung and in the assay on CAKI-1 renal was over 25 µM each time.
